This note sets out measurements from patent US8796289B2 (AbbVie Inc., priority 2011, dated 2014).

Chain of GST-tagged-Wee1 kinase (P30291 whole entry): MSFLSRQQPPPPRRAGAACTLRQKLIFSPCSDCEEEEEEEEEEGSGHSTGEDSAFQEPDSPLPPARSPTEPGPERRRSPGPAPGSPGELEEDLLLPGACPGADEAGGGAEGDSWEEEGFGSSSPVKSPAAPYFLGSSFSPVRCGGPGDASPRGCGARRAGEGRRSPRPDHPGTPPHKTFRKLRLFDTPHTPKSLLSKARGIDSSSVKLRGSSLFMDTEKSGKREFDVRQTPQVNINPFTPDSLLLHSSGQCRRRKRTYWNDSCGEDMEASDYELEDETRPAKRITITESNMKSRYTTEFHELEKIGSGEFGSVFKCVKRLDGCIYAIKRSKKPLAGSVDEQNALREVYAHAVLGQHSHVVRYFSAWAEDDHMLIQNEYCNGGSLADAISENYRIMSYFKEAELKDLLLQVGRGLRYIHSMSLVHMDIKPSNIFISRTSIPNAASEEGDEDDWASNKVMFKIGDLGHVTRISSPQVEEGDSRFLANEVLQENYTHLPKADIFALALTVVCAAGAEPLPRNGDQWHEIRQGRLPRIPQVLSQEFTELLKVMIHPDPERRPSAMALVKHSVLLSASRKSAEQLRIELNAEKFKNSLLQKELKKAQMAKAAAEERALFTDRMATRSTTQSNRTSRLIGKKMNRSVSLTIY

The target of the experiment is GST-tagged-Wee1 kinase (Homo sapiens, UniProt P30291). As to the kind of experiment: Wee1 time-resolved fluorescence equilibrium binding assay (displacement of Oregon Green-labeled ATP-competitive kinase probe). Here is the method:
Wee1 kinase was assayed using a time-resolved fluorescence equilibrium binding assay monitoring displacement of a rapidly reversible Oregon Green-labeled ATP-competitive kinase probe (N-(2-(2-(2-(4-(4-(5-chloro-4-(2-(1-hydroxycyclobutyl)thiazol-5-yl)-1H-pyrrolo[2,3-b]pyridin-2-yl)phenyl)piperazin-1-yl)ethoxy)ethoxy)ethyl)-2′,7′-difluoro-3′,6′-dihydroxy-3-oxo-3H-spiro[isobenzofuran-1,9′-xanthene]-5-carboxamide) by competitive Wee1 inhibitors.
Usually Ki stands for a measure of affinity in units of concentration, obtained from inhibition or displacement. A low value points to higher affinity. Take `Cc1nn(-c2c(Cl)cccc2Cl)c(=O)c2cnc(Nc3ccc4c(c3)CNCC43CC3)nc12` [Example 300, 6-(2,6-dichlorophenyl)-2-(2′,3′-dihydro-1′H-spiro[cyclopropane-1,4′-isoquinolin]-7′-ylamino)-8-methylpyrimido[4,5-d]pyridazin-5(6H)-one]: affinity was put at a Ki of 0.12 nM. For `Cn1cnc(-c2nn(-c3c(Cl)cccc3Cl)c(=O)c3cnc(Nc4ccc(N5CCNCC5)cc4)nc23)c1` [Example 340, 6-(2,6-dichlorophenyl)-8-(1-methyl-1H-imidazol-4-yl)-2-{[4-(piperazin-1-yl)phenyl]amino}pyrimido[4,5-d]pyridazin-5(6H)-one], the Ki was found to be 0.32 nM.

The compound `Cc1nn(-c2c(Cl)cccc2Cl)c(=O)c2cnc(Nc3ccc(CN4CCN(C)CC4)cc3)nc12` [Example 454, 6-(2,6-dichlorophenyl)-8-methyl-2-({4-[(4-methylpiperazin-1-yl)methyl]phenyl}amino)pyrimido[4,5-d]pyridazin-5(6H)-one] yielded a Ki of 1.2 nM.

`C=CCn1nc(Cc2ccccc2)c2nc(Nc3ccc(N4CCN(C)CC4)cc3)ncc2c1=O` [Example 22]: the inhibitory constant (Ki) stood at 700 nM. The figure for `C=CCn1nc(-c2cccs2)c2nc(Nc3ccc(CN(C)C)cc3)ncc2c1=O` [Example 210, 2-({4-[(dimethylamino)methyl]phenyl}amino)-6-(prop-2-en-1-yl)-8-(thiophen-2-yl)pyrimido[4,5-d]pyridazin-5(6H)-one] is 33 nM. `CN1CCN(c2ccc(Nc3ncc4c(=O)n(CC(F)(F)F)nc(CCc5ccccc5)c4n3)cc2)CC1` [Example 10, 2-{[4-(4-methylpiperazin-1-yl)phenyl]amino}-8-(2-phenylethyl)-6-(2,2,2-trifluoroethyl)pyrimido[4,5-d]pyridazin-5(6H)-one]: the Ki was over 3140 nM. Under `CN1CCN(c2ccc(Nc3ncc4c(=O)n(-c5ccccc5C(F)(F)F)nc(-c5ccc(Cl)cc5Cl)c4n3)cc2)CC1` [Example 39, 8-(2,4-dichlorophenyl)-2-{[4-(4-methylpiperazin-1-yl)phenyl]amino}-6-[2-(trifluoromethyl)phenyl]pyrimido[4,5-d]pyridazin-5(6H)-one] stands 250 nM; under `C=CCn1nc(-c2ccco2)c2nc(Nc3ccc(N4CCN(C(C)C)CC4)c(C)c3)ncc2c1=O` [Example 146, 6-allyl-8-(2-furyl)-2-{[4-(4-isopropylpiperazin-1-yl)-3-methylphenyl]amino}pyrimido[4,5-d]pyridazin-5(6H)-one], 3 nM. `COc1ccccc1-n1nc(C2CCCC2)c2nc(Nc3ccc(N4CCN(C)CC4)cc3)ncc2c1=O` [Example 57, 8-cyclopentyl-6-(2-methoxyphenyl)-2-{[4-(4-methylpiperazin-1-yl)phenyl]amino}pyrimido[4,5-d]pyridazin-5(6H)-one] gave a Ki of 7 nM. Under `CN1CCN(c2ccc(Nc3ncc4c(=O)n(-c5c(Cl)cccc5Cl)nc(-c5ccncc5)c4n3)cc2)CC1` [Example 156, 6-(2,6-dichlorophenyl)-2-{[4-(4-methylpiperazin-1-yl)phenyl]amino}-8-(pyridin-4-yl)pyrimido[4,5-d]pyridazin-5(6H)-one] stands 0.03 nM; under `Cc1cc(Nc2ncc3c(=O)n(-c4ccccc4C)nc(-c4ccco4)c3n2)ccc1N1CCN(C(C)C)CC1` [Example 133, 8-(2-furyl)-2-{[4-(4-isopropylpiperazin-1-yl)-3-methylphenyl]amino}-6-(2-methylphenyl)pyrimido[4,5-d]pyridazin-5(6H)-one], 3 nM. `CCc1nn(-c2c(Cl)cccc2Cl)c(=O)c2cnc(Nc3ccc4c(c3)CNC(=O)C4)nc12` [Example 464, 6-(2,6-dichlorophenyl)-8-ethyl-2-[(3-oxo-1,2,3,4-tetrahydroisoquinolin-7-yl)amino]pyrimido[4,5-d]pyridazin-5(6H)-one] came in with a Ki of 1.6 nM. Compared with the last compound, the Ki is about 1.9-fold lower.

`CCc1nn(-c2c(Cl)cccc2Cl)c(=O)c2cnc(Nc3ccc(N4CCN(C(C)=O)CC4)cc3)nc12` [Example 414, 2-{[4-(4-acetylpiperazin-1-yl)phenyl]amino}-6-(2,6-dichlorophenyl)-8-ethylpyrimido[4,5-d]pyridazin-5(6H)-one]: affinity was put at a Ki of 0.75 nM. Under `CN1CCN(c2ccc(Nc3ncc4c(=O)n(-c5c(Cl)cccc5Cl)nc(-c5ccn(CCN)n5)c4n3)cc2)CC1` [Example 235, 8-[1-(2-aminoethyl)-1H-pyrazol-3-yl]-6-(2,6-dichlorophenyl)-2-{[4-(4-methylpiperazin-1-yl)phenyl]amino}pyrimido[4,5-d]pyridazin-5(6H)-one] stands 0.1 nM; under `Cc1nn(-c2c(F)cccc2Cl)c(=O)c2cnc(Nc3ccc4c(c3)CN(C)CC4(C)C)nc12` [Example 311, 6-(2-chloro-6-fluorophenyl)-8-methyl-2-[(2,4,4-trimethyl-1,2,3,4-tetrahydroisoquinolin-7-yl)amino]pyrimido[4,5-d]pyridazin-5(6H)-one], 1 nM; under `C=CCn1nc(-c2ccccc2)c2nc(Nc3ccc(N4CCN(C(C)C)CC4)c(C)c3)ncc2c1=O` [Example 169, 6-allyl-2-{[4-(4-isopropylpiperazin-1-yl)-3-methylphenyl]amino}-8-phenylpyrimido[4,5-d]pyridazin-5(6H)-one], 2 nM. The figure for `Cc1ccccc1-n1nc(-c2ccco2)c2nc(Nc3ccc(S(=O)(=O)N4CCOCC4)cc3)ncc2c1=O` [Example 108, 8-(2-furyl)-6-(2-methylphenyl)-2-{[4-(morpholin-4-ylsulfonyl)phenyl]amino}pyrimido[4,5-d]pyridazin-5(6H)-one] is 150 nM; for `Cc1ccccc1-n1nc(-c2cccs2)c2nc(Nc3ccc4c(c3)CN(C)CC4)ncc2c1=O` [Example 164, 6-(2-methylphenyl)-2-[(2-methyl-1,2,3,4-tetrahydroisoquinolin-7-yl)amino]-8-(2-thienyl)pyrimido[4,5-d]pyridazin-5(6H)-one] it is 0.5 nM; for `CN1CCN(c2ccc(Nc3ncc4c(=O)n(-c5c(Cl)cccc5Cl)nc(-c5cnn(C)c5)c4n3)cc2)CC1` [Example 87, 6-(2,6-dichlorophenyl)-2-{[4-(4-methylpiperazin-1-yl)phenyl]amino}-8-(1-methyl-1H-pyrazol-4-yl)pyrimido[4,5-d]pyridazin-5(6H)-one] it is 0.1 nM.

`Cc1cccc(Cl)c1-n1nc(C)c2nc(Nc3ccc(NC4CCN(C)CC4)cc3)ncc2c1=O` [Example 501, 6-(2-chloro-6-methylphenyl)-8-methyl-2-({4-[(1-methylpiperidin-4-yl)amino]phenyl}amino)pyrimido[4,5-d]pyridazin-5(6H)-one] gave a Ki of 0.32 nM. The figure for `Cc1nn(-c2c(Cl)cccc2Cl)c(=O)c2cnc(Nc3cccc(N4CCCCC4)c3)nc12` [Example 504, 6-(2,6-dichlorophenyl)-8-methyl-2-{[3-(piperidin-1-yl)phenyl]amino}pyrimido[4,5-d]pyridazin-5(6H)-one] is 3.7 nM. With `CNC(=O)c1ccc(-c2nn(-c3c(Cl)cccc3Cl)c(=O)c3cnc(Nc4ccc(N5CCN(C)CC5)cc4)nc23)cc1` [Example 293, 4-[6-(2,6-dichlorophenyl)-2-{[4-(4-methylpiperazin-1-yl)phenyl]amino}-5-oxo-5,6-dihydropyrimido[4,5-d]pyridazin-8-yl]-N-methylbenzamide], the affinity, expressed as Ki, was 0.25 nM. This Ki lies about 15-fold lower than the previous one. The figure for `CN1CCN(c2ccc(Nc3ncc4c(=O)n(-c5c(Cl)cccc5Cl)nc(-c5nccs5)c4n3)cc2)CC1` [Example 316, 6-(2,6-dichlorophenyl)-2-{[4-(4-methylpiperazin-1-yl)phenyl]amino}-8-(1,3-thiazol-2-yl)pyrimido[4,5-d]pyridazin-5(6H)-one] is 1.8 nM. The figure for `O=c1c2cnc(Nc3ccc4c(c3)CNCC43CC3)nc2c(CO)nn1-c1c(Cl)cccc1Cl` [Example 433, 6-(2,6-dichlorophenyl)-2-(2′,3′-dihydro-1′H-spiro[cyclopropane-1,4′-isoquinolin]-7′-ylamino)-8-(hydroxymethyl)pyrimido[4,5-d]pyridazin-5(6H)-one] is 0.15 nM.

Take `CN1CCN(Cc2cccc(-c3nn(-c4c(Cl)cccc4Cl)c(=O)c4cnc(Nc5ccc(N6CCN(C)CC6)cc5)nc34)c2)CC1` [Example 215, 6-(2,6-dichlorophenyl)-8-{3-[(4-methylpiperazin-1-yl)methyl]phenyl}-2-{[4-(4-methylpiperazin-1-yl)phenyl]amino}pyrimido[4,5-d]pyridazin-5(6H)-one]: the Ki came out at 0.2 nM. Under `CN1CCN(c2ccc(Nc3ncc4c(=O)n(-c5c(Cl)cccc5Cl)nc(-c5cnn(CCN6CCCCC6)c5)c4n3)cc2)CC1` [Example 213, 6-(2,6-dichlorophenyl)-2-{[4-(4-methylpiperazin-1-yl)phenyl]amino}-8-{1-[2-(piperidin-1-yl)ethyl]-1H-pyrazol-4-yl}pyrimido[4,5-d]pyridazin-5(6H)-one] stands 0.6 nM; under `CN1CCN(c2ccc(Nc3ncc4c(=O)n(-c5c(Cl)cccc5Cl)nc(-c5ccn(CCN6CCCCC6)n5)c4n3)cc2)CC1` [Example 232, 6-(2,6-dichlorophenyl)-2-{[4-(4-methylpiperazin-1-yl)phenyl]amino}-8-{1-[2-(piperidin-1-yl)ethyl]-1H-pyrazol-3-yl}pyrimido[4,5-d]pyridazin-5(6H)-one], 0.2 nM; under `CN1CCN(c2ccc(Nc3ncc4c(=O)n(-c5c(Cl)cncc5Cl)nc(-c5ccncc5)c4n3)cc2)CC1` [Example 358, 6-(3,5-dichloropyridin-4-yl)-2-{[4-(4-methylpiperazin-1-yl)phenyl]amino}-8-(pyridin-4-yl)pyrimido[4,5-d]pyridazin-5(6H)-one], 0.47 nM. `Cc1nn(-c2c(Cl)cccc2Cl)c(=O)c2cnc(Nc3ccc4c(c3)CN(C)C4(C)C)nc12` [Example 471, 6-(2,6-dichlorophenyl)-8-methyl-2-[(1,1,2-trimethyl-2,3-dihydro-1H-isoindol-5-yl)amino]pyrimido[4,5-d]pyridazin-5(6H)-one] showed an inhibition constant (Ki) of 0.16 nM. This Ki is about 2.9-fold lower than that of the compound before.
